# Assay results published in US20250205344A1, “2,4-DIOXOTETRAHYDROPYRIMIDINYL DERATIVES AS DEGRONS IN PROTACS” (GLAXOSMITHKLINE INTELLECTUAL PROPERTY DEVELOPMENT LIMITED, priority 2022, published 2025).
# Where a name gives a salt, the structure may show the parent alone.
# Biological target: T1, Androgen Receptor (Homo sapiens, UniProt P10275, T878A)
# T1 construct: the AR gene was modified, using CRISPR/Cas9 editing, so the expressed AR protein included an 11 amino acid HiBiT tag; endogenous in cells; host or cells: clonal LnCaP-derived line, AR gene edited by CRISPR/Cas9
# Assay: Androgen Receptor Degradation Assay (Nano-Glo HiBiT)
# Format: cell-based
# Details: LNCaP, 18 h, HiBiT-tagged AR in human LnCaP cells, read-out: mean asymptote max
# Procedure, shortened: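 LnCaP cells with CRISPR-knocked-in N-terminal HiBiT-tagged AR (10,000/well) treated 18 h at 37 °C with PROTACs over 11 threefold concentrations; lytic HiBiT luminescence normalised to DMSO (0%) and cell-free (100%) controls. Relative DC50 = 4-parameter fit inflection; absolute DC50 = 50% degradation interpolation; Dmax = maximum observed degradation.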
# T1 sequence (P10275 whole entry T878A): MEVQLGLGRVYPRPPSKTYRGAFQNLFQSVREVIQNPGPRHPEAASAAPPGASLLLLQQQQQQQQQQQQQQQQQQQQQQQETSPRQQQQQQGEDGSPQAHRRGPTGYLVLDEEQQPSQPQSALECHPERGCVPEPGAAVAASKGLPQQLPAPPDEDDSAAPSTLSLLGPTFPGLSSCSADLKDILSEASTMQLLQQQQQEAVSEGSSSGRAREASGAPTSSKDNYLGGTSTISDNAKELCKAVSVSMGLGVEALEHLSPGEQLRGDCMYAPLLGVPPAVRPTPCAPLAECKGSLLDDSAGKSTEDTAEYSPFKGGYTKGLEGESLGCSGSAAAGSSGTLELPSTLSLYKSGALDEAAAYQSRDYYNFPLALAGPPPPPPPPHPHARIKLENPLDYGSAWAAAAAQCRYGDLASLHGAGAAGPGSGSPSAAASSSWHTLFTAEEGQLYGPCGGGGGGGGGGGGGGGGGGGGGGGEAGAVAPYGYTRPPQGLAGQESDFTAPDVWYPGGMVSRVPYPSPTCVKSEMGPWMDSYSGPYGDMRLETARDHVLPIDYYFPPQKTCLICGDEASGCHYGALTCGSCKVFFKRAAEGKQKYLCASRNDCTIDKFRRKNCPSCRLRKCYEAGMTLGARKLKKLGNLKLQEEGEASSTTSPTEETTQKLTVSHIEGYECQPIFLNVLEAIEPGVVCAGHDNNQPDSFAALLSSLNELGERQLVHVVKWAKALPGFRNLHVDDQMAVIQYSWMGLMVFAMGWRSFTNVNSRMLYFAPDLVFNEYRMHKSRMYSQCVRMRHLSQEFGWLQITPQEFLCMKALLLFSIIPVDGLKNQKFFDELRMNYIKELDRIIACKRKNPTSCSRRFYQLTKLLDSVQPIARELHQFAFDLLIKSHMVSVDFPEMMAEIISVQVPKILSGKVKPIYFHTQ
# T1 sequence (Q96SW2 whole entry partner): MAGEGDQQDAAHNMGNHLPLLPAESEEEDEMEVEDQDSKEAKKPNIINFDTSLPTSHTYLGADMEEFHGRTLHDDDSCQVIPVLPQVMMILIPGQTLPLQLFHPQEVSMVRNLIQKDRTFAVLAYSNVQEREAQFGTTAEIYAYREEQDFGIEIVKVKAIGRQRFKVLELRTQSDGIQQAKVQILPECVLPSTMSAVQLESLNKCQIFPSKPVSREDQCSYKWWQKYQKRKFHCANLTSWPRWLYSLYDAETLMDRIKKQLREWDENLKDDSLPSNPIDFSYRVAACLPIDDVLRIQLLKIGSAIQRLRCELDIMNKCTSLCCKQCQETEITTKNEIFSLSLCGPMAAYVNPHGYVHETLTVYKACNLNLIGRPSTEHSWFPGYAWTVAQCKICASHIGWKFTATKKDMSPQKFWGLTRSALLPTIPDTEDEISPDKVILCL
# T1 sequence (Q16531 whole entry partner): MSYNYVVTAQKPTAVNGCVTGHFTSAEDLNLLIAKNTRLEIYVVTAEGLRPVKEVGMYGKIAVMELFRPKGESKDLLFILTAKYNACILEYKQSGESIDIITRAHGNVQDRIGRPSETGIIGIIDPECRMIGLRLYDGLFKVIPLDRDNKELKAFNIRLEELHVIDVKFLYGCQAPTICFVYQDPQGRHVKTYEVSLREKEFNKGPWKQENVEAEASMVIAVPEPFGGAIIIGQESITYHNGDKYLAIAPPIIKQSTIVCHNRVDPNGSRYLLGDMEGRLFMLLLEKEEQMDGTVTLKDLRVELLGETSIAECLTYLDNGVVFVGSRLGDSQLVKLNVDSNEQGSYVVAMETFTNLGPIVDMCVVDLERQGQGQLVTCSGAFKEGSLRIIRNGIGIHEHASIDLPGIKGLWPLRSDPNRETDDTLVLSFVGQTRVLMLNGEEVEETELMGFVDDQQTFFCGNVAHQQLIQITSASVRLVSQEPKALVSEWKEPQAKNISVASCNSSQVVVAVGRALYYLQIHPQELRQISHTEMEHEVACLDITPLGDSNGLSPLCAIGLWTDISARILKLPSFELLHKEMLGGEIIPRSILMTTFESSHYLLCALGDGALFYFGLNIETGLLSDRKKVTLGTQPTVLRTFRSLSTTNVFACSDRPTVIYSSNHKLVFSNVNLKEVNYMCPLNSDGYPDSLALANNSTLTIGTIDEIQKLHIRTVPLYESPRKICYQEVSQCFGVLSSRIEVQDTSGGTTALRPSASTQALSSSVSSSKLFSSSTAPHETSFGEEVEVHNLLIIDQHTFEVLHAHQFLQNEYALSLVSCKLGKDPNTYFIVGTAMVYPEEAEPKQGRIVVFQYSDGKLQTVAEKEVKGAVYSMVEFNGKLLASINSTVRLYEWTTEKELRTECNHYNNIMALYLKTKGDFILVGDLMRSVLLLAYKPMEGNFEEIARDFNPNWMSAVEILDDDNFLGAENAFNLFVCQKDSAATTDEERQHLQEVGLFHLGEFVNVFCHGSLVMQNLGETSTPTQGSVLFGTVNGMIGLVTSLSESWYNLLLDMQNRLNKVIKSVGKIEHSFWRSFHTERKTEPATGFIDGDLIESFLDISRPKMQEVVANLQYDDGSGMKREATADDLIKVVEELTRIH
row,Dmax [%],Compound
1,≥ 50,"N#Cc1ccc(O[C@H]2CC[C@H](NC(=O)c3ccc(N4CCN(CC5CCC(n6ccc7c(N8CCC(=O)NC8=O)cccc76)CC5)CC4)nn3)CC2)cc1Cl (stereo partly shown) [EAR194, N-((1r,4r)-4-(3-Chloro-4-cyanophenoxy)cyclohexyl)-6-(4-((4-(4-(2,4-dioxotetrahydropyrimidin-1(2H)-yl)-1H-indol-1-yl)cyclohexyl)methyl)piperazin-1-yl)pyridazine-3-carboxamide, trifluoroacetic acid salt]"
2,≥ 50,"N#Cc1ccc(O[C@H]2CC[C@H](NC(=O)c3cnc(N4CCC(C(=O)N5CCC(n6ccc7c(N8CCC(=O)NC8=O)cccc76)CC5)CC4)nc3)CC2)cc1Cl [EAR69, N-((1r,4r)-4-(3-Chloro-4-cyanophenoxy)cyclohexyl)-2-(4-(4-(4-(2,4-dioxotetrahydropyrimidin-1(2H)-yl)-1H-indol-1-yl)piperidine-1-carbonyl)piperidin-1-yl)pyrimidine-5-carboxamide]"
3,≥ 50,"N#Cc1ccc(O[C@H]2CC[C@H](NC(=O)c3ccc(CN4CCC(n5ccc6c(N7CCC(=O)NC7=O)cccc65)CC4)cc3)CC2)cc1Cl [EAR180, N-((1r,4r)-4-(3-Chloro-4-cyanophenoxy)cyclohexyl)-4-((4-(4-(2,4-dioxotetrahydropyrimidin-1(2H)-yl)-1H-indol-1-yl)piperidin-1-yl)methyl)benzamide]"
4,≥ 50,"N#Cc1ccc(O[C@H]2CC[C@H](NC(=O)c3ccc(N4CCC(CN5CCC(n6ccc7c(N8CCC(=O)NC8=O)ccnc76)CC5)CC4)nn3)CC2)cc1C(F)(F)F [EAR212, N-((1r,4r)-4-(4-Cyano-3-(trifluoromethyl)phenoxy)cyclohexyl)-6-(4-((4-(4-(2,4-dioxotetrahydropyrimidin-1(2H)-yl)-1H-pyrrolo[2,3-b]pyridin-1-yl)piperidin-1-yl)methyl)piperidin-1-yl)pyridazine-3-carboxamide]"
5,≥ 50,"N#Cc1ccc(O[C@H]2CC[C@H](NC(=O)c3cnc(N4CCC(CN5CCC(n6ccc7c(N8CCC(=O)NC8=O)cncc76)CC5)CC4)cn3)CC2)cc1C(F)(F)F [AR15, N-((1r,4r)-4-(4-Cyano-3-(trifluoromethyl)phenoxy)cyclohexyl)-5-(4-((4-(4-(2,4-dioxotetrahydropyrimidin-1(2H)-yl)-1H-pyrrolo[2,3-c]pyridin-1-yl)piperidin-1-yl)methyl)piperidin-1-yl)pyrazine-2-carboxamide]"
6,≥ 50,"N#Cc1ccc(O[C@H]2CC[C@H](NC(=O)c3ccc(N4CCC[C@H](CN5CCC(n6ccc7c(N8CCC(=O)NC8=O)cccc76)CC5)C4)nn3)CC2)cc1Cl [EAR142, N-((1r,4R)-4-(3-chloro-4-cyanophenoxy)cyclohexyl)-6-((R)-3-((4-(4-(2,4-dioxotetrahydropyrimidin-1(2H)-yl)-1H-indol-1-yl)piperidin-1-yl)methyl)piperidin-1-yl)pyridazine-3-carboxamide]"
7,≥ 50,"N#Cc1ccc(O[C@H]2CC[C@H](NC(=O)c3cccc(C4CCN(C(=O)CN5CCC(n6ccc7c(N8CCC(=O)NC8=O)cccc76)CC5)CC4)c3)CC2)cc1Cl [AR3, N-((1r,4r)-4-(3-Chloro-4-cyanophenoxy)cyclohexyl)-3-(1-(2-(4-(4-(2,4-dioxotetrahydropyrimidin-1(2H)-yl)-1H-indol-1-yl)piperidin-1-yl)acetyl)piperidin-4-yl)benzamide]"
8,≥ 50,"N#Cc1ccc(O[C@H]2CC[C@H](NC(=O)c3ccc(N4CCC(CN5CCC(n6ncc7c(N8CCC(=O)NC8=O)nccc76)CC5)CC4)cc3)CC2)cc1Cl [EAR199, N-((1r,4r)-4-(3-Chloro-4-cyanophenoxy)cyclohexyl)-4-(4-((4-(4-(2,4-dioxotetrahydropyrimidin-1(2H)-yl)-1H-pyrazolo[4,3-c]pyridin-1-yl)piperidin-1-yl)methyl)piperidin-1-yl)benzamide]"
9,≥ 50,"N#Cc1ccc(O[C@H]2CC[C@H](NC(=O)c3ccc(CCN4CCC(n5ccc6c(N7CCC(=O)NC7=O)cccc65)CC4)cc3)CC2)cc1Cl [EAR130, N-((1r,4r)-4-(3-Chloro-4-cyanophenoxy)cyclohexyl)-4-(2-(4-(4-(2,4-dioxotetrahydropyrimidin-1(2H)-yl)-1H-indol-1-yl)piperidin-1-yl)ethyl)benzamide]"
10,≥ 50,"N#Cc1ccc(O[C@H]2CC[C@H](NC(=O)c3ccc(N4CCC(CN5CCC(n6ccc7c(N8CCC(=O)NC8=O)ncnc76)CC5)CC4)cc3)CC2)cc1Cl [EAR195, N-((1r,4r)-4-(3-chloro-4-cyanophenoxy)cyclohexyl)-4-(4-((4-(4-(2,4-dioxotetrahydropyrimidin-1(2H)-yl)-7H-pyrrolo[2,3-d]pyrimidin-7-yl)piperidin-1-yl)methyl)piperidin-1-yl)benzamide hydrochloride]"
11,≥ 50,"CC(C)n1ccc2c(N3CCC(=O)NC3=O)cc(C(=O)N3CCC4(CCCN(Cc5ccc(C(=O)N[C@H]6CC[C@H](Oc7ccc(C#N)c(Cl)c7)CC6)cc5)C4)CC3)cc21 [EAR81, N-((1r,4r)-4-(3-Chloro-4-cyanophenoxy)cyclohexyl)-4-((9-(4-(2,4-dioxotetrahydropyrimidin-1(2H)-yl)-1-isopropyl-1H-indole-6-carbonyl)-2,9-diazaspiro[5.5]undecan-2-yl)methyl)benzamide]"
12,≥ 50,"CC(C)n1ccc2c(N3CCC(=O)NC3=O)cc(C(=O)N(C)CC3CCN(CCCOc4ccc(C(=O)N[C@H]5CC[C@H](Oc6ccc(C#N)c(Cl)c6)CC5)nc4)CC3)cc21 [EAR61, N-((1-(3-((6-(((1r,4r)-4-(3-Chloro-4-cyanophenoxy)cyclohexyl)carbamoyl)pyridin-3-yl)oxy)propyl)piperidin-4-yl)methyl)-4-(2,4-dioxotetrahydropyrimidin-1(2H)-yl)-1-isopropyl-N-methyl-1H-indole-6-carboxamide]"
13,≥ 50,"CC(C)n1ccc2c(N3CCC(=O)NC3=O)cc(C(=O)N3CCN(CCCCCCc4ccc(C(=O)N[C@H]5C(C)(C)[C@H](Oc6ccc(C#N)c(C(F)(F)F)c6)C5(C)C)cc4)CC3)cc21 [EAR87, N-((1r,3r)-3-(4-Cyano-3-(trifluoromethyl)phenoxy)-2,2,4,4-tetramethylcyclobutyl)-4-(6-(4-(4-(2,4-dioxotetrahydropyrimidin-1(2H)-yl)-1-isopropyl-1H-indole-6-carbonyl)piperazin-1-yl)hexyl)benzamide]"

row,Compound,Dmax [%]
1,"C[C@@H]1CN(C(=O)Nc2cnc(N3CCC(CN4CCC(n5ccc6c(N7CCC(=O)NC7=O)cccc65)CC4)CC3)nc2)[C@@H](C)CN1c1ccc(C#N)c(Cl)c1 (racemic) [EAR114, rac-(trans)-4-(3-Chloro-4-cyanophenyl)-N-(2-(4-((4-(4-(2,4-dioxotetrahydropyrimidin-1(2H)-yl)-1H-indol-1-yl)piperidin-1-yl)methyl)piperidin-1-yl)pyrimidin-5-yl)-2,5-dimethylpiperazine-1-carboxamide]",≥ 50
2,"N#Cc1ccc(O[C@H]2CC[C@H](NC(=O)c3ccc(N4CC5CC(C4)C5CN4CCC(n5ncc6c(N7CCC(=O)NC7=O)cccc65)CC4)nn3)CC2)cc1Cl (stereo partly shown) [EAR228, N-((1r,4r)-4-(3-chloro-4-cyanophenoxy)cyclohexyl)-6-(6-((4-(4-(2,4-dioxotetrahydropyrimidin-1(2H)-yl)-1H-indazol-1-yl)piperidin-1-yl)methyl)-3-azabicyclo[3.1.1]heptan-3-yl)pyridazine-3-carboxamide]",≥ 50
3,"CC(C)n1ccc2c(N3CCC(=O)NC3=O)cc(C(=O)N3CCN(CC4CCN(c5ncc(NC(=O)N6C[C@H](C)N(c7ccc(C#N)c(Cl)c7)C[C@H]6C)cn5)CC4)CC3)cc21 [EAR107, (2R,5S)-4-(3-Chloro-4-cyanophenyl)-N-(2-(4-((4-(4-(2,4-dioxotetrahydropyrimidin-1(2H)-yl)-1-isopropyl-1H-indole-6-carbonyl)piperazin-1-yl)methyl)piperidin-1-yl)pyrimidin-5-yl)-2,5-dimethylpiperazine-1-carboxamide]",≥ 50
4,"C[C@@H]1CN(c2ccc(C#N)c(Cl)c2)[C@@H](C)CN1C(=O)Nc1ccc(N2CCC(CCN3CCC(n4ccc5c(N6CCC(=O)NC6=O)cccc54)CC3)CC2)nc1 (racemic) [EAR115, rac-(trans)-4-(3-Chloro-4-cyanophenyl)-N-(6-(4-(2-(4-(4-(2,4-dioxotetrahydropyrimidin-1(2H)-yl)-1H-indol-1-yl)piperidin-1-yl)ethyl)piperidin-1-yl)pyridin-3-yl)-2,5-dimethylpiperazine-1-carboxamide]",≥ 50
5,"C[C@@H]1CN(c2ccc(C#N)c(Cl)c2)[C@@H](C)CN1C(=O)c1ccc(OCCN2CCC(n3ncc4c(N5CCC(=O)NC5=O)cncc43)CC2)nc1 [EAR174, 2-Chloro-4-((2S,5R)-4-(6-(2-(4-(4-(2,4-dioxotetrahydropyrimidin-1(2H)-yl)-1H-pyrazolo[3,4-c]pyridin-1-yl)piperidin-1-yl)ethoxy)nicotinoyl)-2,5-dimethylpiperazin-1-yl)benzonitrile]",≥ 50
6,"C[C@@H]1CN(C(=O)Nc2ccc(N3CCC(CCN4CCC(n5ncc6c(N7CCC(=O)NC7=O)cccc65)CC4)CC3)nc2)[C@@H](C)CN1c1ccc(C#N)c(Cl)c1 [EAR132, (2S,5R)-4-(3-Chloro-4-cyanophenyl)-N-(6-(4-(2-(4-(4-(2,4-dioxotetrahydropyrimidin-1(2H)-yl)-1H-indazol-1-yl)piperidin-1-yl)ethyl)piperidin-1-yl)pyridin-3-yl)-2,5-dimethylpiperazine-1-carboxamide, formic acid salt]",≥ 50
